# Data reported in patent US20080146616A1, “Indoles Useful in the Treatment of Inflammation” (priority 2004, published 2008).
# Target: T1, human mPGES-1 (Homo sapiens, UniProt O14684)
# T1 construct: made in house; host or cells: E. coli (membrane fraction)
# T1 sequence (O14684 1-152): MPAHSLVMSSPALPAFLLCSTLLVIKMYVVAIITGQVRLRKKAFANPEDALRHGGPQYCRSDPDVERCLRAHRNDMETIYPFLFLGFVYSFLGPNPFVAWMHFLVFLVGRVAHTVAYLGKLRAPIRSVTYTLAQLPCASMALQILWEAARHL
# Test: mPGES-1 inhibition assay (conversion of PGH2 to PGE2, HPLC analysis)
# Assay type: biochemical
# Settings: human mPGES-1 expressed in E. coli, membrane fraction; 25 min preincubation, PGH2 substrate 60 s, room temperature; read-out: concentration at which 50% inhibition of mPGES-1 was observed
# Protocol: In the assay human in PGES-1 catalyses the reaction where the substrate PGH2 is converted to PGE2. mPGES-1 is expressed in E. Coli and the membrane fraction is dissolved in 20mM NaPi-buffer pH 8.0 and stored at −80° C. In the assay human mPGES-1 is dissolved in 0.1 M KPi-buffer pH 7.35 with 2.5 mM glutathione. The stop solution consists of H2O/MeCN (7/3), containing FeCl2 (25 mM) and HCl (0.15 M). The assay is performed at room temperature in 96-well plates. Analysis of the amount of PGE2 is performed with reversed phase HPLC (Waters 2795 equipped with a 3.9×150 mm C18 column). The mobile phase consists of H2O/MeCN (7/3), containing TFA (0.056%), and absorbance is measured at […] with a Waters 2487 UV-detector.
# The following is added chronologically to each well: • 1. 100 μL human mPGES-1 in KPi-buffer with glutathione. Total protein concentration: 0.02 mg/mL. • 2. […] inhibitor in DMSO. Incubation of the plate at room temperature for 25 minutes. • 3. 4 μL of a […] PGH2 solution. Incubation of the plate at room temperature for 60 seconds. • 4. 100 μL stop solution. • 180 μL per sample is analyzed with HPLC.
row,IC50 [nM],Structure (SMILES)
1,350,"CC(C)Oc1ccc(-c2c(C(=O)O)n(-c3cccc(OC(C)C)c3)c3ccc(-c4ccc(C(C)(C)C)cc4)cc23)cc1 [Example 2, 5-(4-tert-Butylphenyl)-1-(3-isopropoxyphenyl)-3-(4-isopropoxyphenyl)-indole-2-carboxylic acid]"
2,210,"CC(C)Oc1ccc(-c2c(C(=O)O)n(-c3ccc(N(C)C)cc3)c3ccc(-c4ccc(C(C)(C)C)cc4)cc23)cc1 [Example 5, 5-(4-tert-Butylphenyl)-1-(4-(dimethylamino)phenyl)-3-(4-isopropoxyphenyl)indole-2-carboxylic acid]"
3,950,"CC(C)Oc1ccc(-c2c(C(=O)O)n(-c3cccnc3)c3ccc(-c4ccc(C(C)(C)C)cc4)cc23)cc1 [Example 13, 5-(4-tert-Butylphenyl)-3-(4-isopropoxyphenyl)-1-pyrid-3-yl-1H-indole-2-carboxylic acid]"

# Second part, the compound before the results:
row,Structure (SMILES),IC50 [nM]
1,"CC(C)Nc1ccc(-n2c(C(=O)O)c(-c3ccc(OC(C)C)cc3)c3cc(-c4ccc(C(C)(C)C)cc4)ccc32)cc1 [Example 6, 5-(4-tert-Butylphenyl)-3-(4-isopropoxyphenyl)-1-(4-(isopropylamino)-phenyl)indole-2-carboxylic acid]",70
2,"CC(C)Oc1ccc(-n2c(C(=O)O)c(-c3cccnc3)c3cc(-c4ccc(C(F)(F)F)cc4)ccc32)cn1 [Example 11, 1-(6-Isopropoxypyrid-3-yl)-3-(pyrid-3-yl)-5-(4-(trifluoromethyl)phenyl)-indole-2-carboxylic acid]",1800
